According to ChEMBL document CHEMBL3885861, “Open TG-GATES”:

Organism: Rattus norvegicus
Assay: Open TG-GATES - Regimen: Daily Repeat
Type: toxicity, organism-based, Sprague-Dawley
Design: regimen Daily Repeat, gender Male, age 6 weeks
Conditions: in vivo, po, route gavage; for APTT / Bas / Eos / Fbg / Hb / Ht / Lym / MCH / MCHC / MCV / Mono / Neu / PT / Plat / RBC / Ret / WBC: tissue Blood; for KIDNEY_TOTAL: tissue Kidney; for LIVER: tissue Liver; for A/G / ALP / ALT / AST / BUN / CRE / Ca / Cl / DBIL / GLC / IP / K / LDH / Na / PL / RALB / TBIL / TC / TG / TP / gamma-GTP: tissue Plasma
[1] = 20 mg/kg, 72 h, dose level Middle, time 3 day
[2] = 20 mg/kg, […], dose level Middle, time 7 day
[3] = 20 mg/kg, […], dose level Middle, time 14 day
[4] = 20 mg/kg, […], dose level Middle, time 28 day
[5] = 100 mg/kg, 72 h, dose level High, time 3 day
[6] = 100 mg/kg, […], dose level High, time 7 day
[7] = 100 mg/kg, […], dose level High, time 14 day
[8] = 100 mg/kg, […], dose level High, time 28 day

## CN(CCOc1ccc(CC2SC(=O)NC2=O)cc1)c1ccccn1.O=C(O)/C=C\C(=O)O (stereo not drawn) [ROSIGLITAZONE MALEATE]
[1]
  TERMINAL_BW: 255.1 g
  APTT: 16.4 s
  Bas: 0%
  Eos: 0.8%
  Fbg: 231.2 mg/dL
  Hb: 12.7 g/dL
  Ht: 38.6%
  Lym: 75.2%
  MCH: 21 pg
  MCHC: 32.8%
  MCV: 64 fL
  Mono: 8%
  Neu: 16.6%
  PT: 11.7 s
  Plat: 136.2 x10_4/uL
  RBC: 603.2 x10_4/ul
  Ret: 7%
  WBC: 83.2 x10_2/uL
  KIDNEY_TOTAL: 0.7 g
  LIVER: 12.7 g
  A/G: 2.3
  ALP: 1378.6 IU/L
  ALT: 38.8 IU/L
  AST: 67.8 IU/L
  BUN: 16.4 mg/dL
  CRE: 0.2 mg/dL
  Ca: 11.7 mg/dL
  Cl: 103.6 meq/L
  DBIL: 0.012 mg/dL
  GLC: 187.4 mg/dL
  IP: 7.6 mg/dL
  K: 4.3 meq/L
  LDH: 93.4 IU/L
  Na: 140 meq/L
  PL: 147.4 mg/dL
  RALB: 3.9 g/dL
  TBIL: 0.04 mg/dL
  TC: 80.4 mg/dL
  TG: 79.6 mg/dL
  TP: 5.6 g/dL
  gamma-GTP: 0 IU/L
[2]
  TERMINAL_BW: 281.6 g
  APTT: 15.7 s
  Bas: 0%
  Eos: 0.8%
  Fbg: 225.6 mg/dL
  Hb: 12.6 g/dL
  Ht: 38.6%
  Lym: 76%
  MCH: 20.7 pg
  MCHC: 32.5%
  MCV: 63.5 fL
  Mono: 6%
  Neu: 17.4%
  PT: 11.9 s
  Plat: 123 x10_4/uL
  RBC: 608.4 x10_4/ul
  Ret: 6.5%
  WBC: 87.6 x10_2/uL
  KIDNEY_TOTAL: 0.8 g
  LIVER: 13.5 g
  A/G: 2.1
  ALP: 1428.6 IU/L
  ALT: 36.2 IU/L
  AST: 67.6 IU/L
  BUN: 18.8 mg/dL
  CRE: 0.4 mg/dL
  Ca: 11.3 mg/dL
  Cl: 104.8 meq/L
  DBIL: 0.01 mg/dL
  GLC: 171.2 mg/dL
  IP: 7.8 mg/dL
  K: 4.3 meq/L
  LDH: 92 IU/L
  Na: 141.2 meq/L
  PL: 134.8 mg/dL
  RALB: 3.8 g/dL
  TBIL: 0.032 mg/dL
  TC: 71.8 mg/dL
  TG: 55.2 mg/dL
  TP: 5.7 g/dL
  gamma-GTP: 0.4 IU/L
[3]
  TERMINAL_BW: 355.9 g
  APTT: 15.9 s
  Bas: 0%
  Eos: 0.8%
  Fbg: 240.4 mg/dL
  Hb: 13 g/dL
  Ht: 39.7%
  Lym: 79.8%
  MCH: 20.7 pg
  MCHC: 32.8%
  MCV: 63 fL
  Mono: 6%
  Neu: 13.6%
  PT: 11.6 s
  Plat: 110.8 x10_4/uL
  RBC: 631.8 x10_4/ul
  Ret: 3.7%
  WBC: 108.6 x10_2/uL
  KIDNEY_TOTAL: 0.8 g
  LIVER: 16.1 g
  A/G: 2
  ALP: 1500.8 IU/L
  ALT: 35.2 IU/L
  AST: 64.2 IU/L
  BUN: 19 mg/dL
  CRE: 0.4 mg/dL
  Ca: 11.1 mg/dL
  Cl: 106.4 meq/L
  DBIL: 0.01 mg/dL
  GLC: 188 mg/dL
  IP: 7.3 mg/dL
  K: 4.2 meq/L
  LDH: 63 IU/L
  Na: 143.8 meq/L
  PL: 134.4 mg/dL
  RALB: 3.8 g/dL
  TBIL: 0.032 mg/dL
  TC: 73.8 mg/dL
  TG: 69.4 mg/dL
  TP: 5.6 g/dL
  gamma-GTP: 1 IU/L
[4]
  TERMINAL_BW: 432 g
  APTT: 15.9 s
  Bas: 0%
  Eos: 1%
  Fbg: 252.2 mg/dL
  Hb: 13.9 g/dL
  Ht: 42.4%
  Lym: 81.8%
  MCH: 19.2 pg
  MCHC: 32.8%
  MCV: 58.6 fL
  Mono: 6%
  Neu: 11%
  PT: 11.9 s
  Plat: 110 x10_4/uL
  RBC: 725 x10_4/ul
  Ret: 2.6%
  WBC: 105 x10_2/uL
  KIDNEY_TOTAL: 0.8 g
  LIVER: 16.8 g
  A/G: 1.8
  ALP: 1013.6 IU/L
  ALT: 34 IU/L
  AST: 61.2 IU/L
  BUN: 17.8 mg/dL
  CRE: 0.4 mg/dL
  Ca: 10.6 mg/dL
  Cl: 105.8 meq/L
  DBIL: 0.01 mg/dL
  GLC: 180.4 mg/dL
  IP: 6.5 mg/dL
  K: 4.2 meq/L
  LDH: 87.2 IU/L
  Na: 140.8 meq/L
  PL: 122.8 mg/dL
  RALB: 3.7 g/dL
  TBIL: 0.032 mg/dL
  TC: 64.6 mg/dL
  TG: 65.2 mg/dL
  TP: 5.8 g/dL
  gamma-GTP: 0.4 IU/L
[5]
  TERMINAL_BW: 241.9 g
  APTT: 16.1 s
  Bas: 0%
  Eos: 1%
  Fbg: 214 mg/dL
  Hb: 12 g/dL
  Ht: 36.4%
  Lym: 73.4%
  MCH: 21.1 pg
  MCHC: 33%
  MCV: 63.8 fL
  Mono: 7.2%
  Neu: 19.2%
  PT: 11.7 s
  Plat: 122 x10_4/uL
  RBC: 570.8 x10_4/ul
  Ret: 7.7%
  WBC: 111.2 x10_2/uL
  KIDNEY_TOTAL: 0.7 g
  LIVER: 12.3 g
  A/G: 2.5
  ALP: 1258 IU/L
  ALT: 44.4 IU/L
  AST: 74.2 IU/L
  BUN: 17.2 mg/dL
  CRE: 0.2 mg/dL
  Ca: 11.4 mg/dL
  Cl: 106.2 meq/L
  DBIL: 0.01 mg/dL
  GLC: 179.8 mg/dL
  IP: 8.1 mg/dL
  K: 4.1 meq/L
  LDH: 115.6 IU/L
  Na: 141.8 meq/L
  PL: 142.2 mg/dL
  RALB: 3.8 g/dL
  TBIL: 0.034 mg/dL
  TC: 77.6 mg/dL
  TG: 48 mg/dL
  TP: 5.4 g/dL
  gamma-GTP: 0 IU/L
[6]
  TERMINAL_BW: 286.2 g
  APTT: 16.1 s
  Bas: 0%
  Eos: 1.2%
  Fbg: 195.8 mg/dL
  Hb: 11.6 g/dL
  Ht: 35.3%
  Lym: 74.6%
  MCH: 21.8 pg
  MCHC: 32.8%
  MCV: 66.4 fL
  Mono: 9.2%
  Neu: 15.4%
  PT: 12.2 s
  Plat: 111.4 x10_4/uL
  RBC: 530.8 x10_4/ul
  Ret: 7.7%
  WBC: 99 x10_2/uL
  KIDNEY_TOTAL: 0.8 g
  LIVER: 14.7 g
  A/G: 2.3
  ALP: 1176 IU/L
  ALT: 33 IU/L
  AST: 67.6 IU/L
  BUN: 20.8 mg/dL
  CRE: 0.5 mg/dL
  Ca: 11 mg/dL
  Cl: 105.6 meq/L
  DBIL: 0.014 mg/dL
  GLC: 178.8 mg/dL
  IP: 7.5 mg/dL
  K: 4 meq/L
  LDH: 77 IU/L
  Na: 142 meq/L
  PL: 135.4 mg/dL
  RALB: 3.8 g/dL
  TBIL: 0.034 mg/dL
  TC: 73.8 mg/dL
  TG: 43.4 mg/dL
  TP: 5.4 g/dL
  gamma-GTP: 0.4 IU/L
[7]
  TERMINAL_BW: 351.2 g
  APTT: 16.1 s
  Bas: 0%
  Eos: 1%
  Fbg: 227 mg/dL
  Hb: 12.8 g/dL
  Ht: 38.9%
  Lym: 70.8%
  MCH: 20.8 pg
  MCHC: 32.8%
  MCV: 63.4 fL
  Mono: 10.4%
  Neu: 17.6%
  PT: 12 s
  Plat: 94.8 x10_4/uL
  RBC: 614.6 x10_4/ul
  Ret: 4.9%
  WBC: 108.6 x10_2/uL
  KIDNEY_TOTAL: 0.9 g
  LIVER: 16.3 g
  A/G: 2
  ALP: 1156 IU/L
  ALT: 36 IU/L
  AST: 68.2 IU/L
  BUN: 18.2 mg/dL
  CRE: 0.4 mg/dL
  Ca: 11 mg/dL
  Cl: 107.6 meq/L
  DBIL: 0.01 mg/dL
  GLC: 190.4 mg/dL
  IP: 7.4 mg/dL
  K: 3.8 meq/L
  LDH: 87.2 IU/L
  Na: 145.8 meq/L
  PL: 120 mg/dL
  RALB: 3.7 g/dL
  TBIL: 0.028 mg/dL
  TC: 69.4 mg/dL
  TG: 38.8 mg/dL
  TP: 5.5 g/dL
  gamma-GTP: 1 IU/L
[8]
  TERMINAL_BW: 428.4 g
  APTT: 16.1 s
  Bas: 0%
  Eos: 1.2%
  Fbg: 220.8 mg/dL
  Hb: 12.9 g/dL
  Ht: 39.5%
  Lym: 77.4%
  MCH: 19.6 pg
  MCHC: 32.6%
  MCV: 60.2 fL
  Mono: 7.8%
  Neu: 13.4%
  PT: 12.1 s
  Plat: 87.6 x10_4/uL
  RBC: 657.8 x10_4/ul
  Ret: 3.2%
  WBC: 104 x10_2/uL
  KIDNEY_TOTAL: 0.9 g
  LIVER: 18.6 g
  A/G: 2.1
  ALP: 951 IU/L
  ALT: 29 IU/L
  AST: 59.2 IU/L
  BUN: 18.6 mg/dL
  CRE: 0.4 mg/dL
  Ca: 11 mg/dL
  Cl: 105 meq/L
  DBIL: 0.01 mg/dL
  GLC: 179.6 mg/dL
  IP: 6.2 mg/dL
  K: 3.9 meq/L
  LDH: 88.4 IU/L
  Na: 141.2 meq/L
  PL: 123.2 mg/dL
  RALB: 3.9 g/dL
  TBIL: 0.04 mg/dL
  TC: 74.8 mg/dL
  TG: 37.8 mg/dL
  TP: 5.8 g/dL
  gamma-GTP: 0 IU/L
